The values below come from patent US6506779B1, “Acetylene derivatives as anti-inflammatory/analgesic agents” (Pfizer Inc., priority 1999, dated 2003).

The term melting point denotes the temperature, or range, at which the solid turns liquid.

As to `CS(=O)(=O)c1ccc(-n2nc(C(F)(F)F)cc2-c2ccc(C#Cc3ccccc3)cc2)cc1` [Example 15, 1-[4-(Methylsulfonyl)Phenyl]-5-[4-(Phenylethynyl)Phenyl]-3-Trifluoromethyl-1H-Pyrazole], the melting point lay in the range of 170 to 172 °C.

`CCCCC#Cc1ccc(-c2cc(C(F)(F)F)nn2-c2ccc(S(C)(=O)=O)cc2)cc1` [Example 16, 5-[4-(1-Hexyn-1-yl)Phenyl]-1-[4-(Methylsulfonyl)Phenyl]-3-Trifluoromethyl-1H-Pyrazole]: the melting point lay within 96 to 98 °C.

For the molecule `CS(=O)(=O)c1ccc(-n2nc(C(F)(F)F)cc2-c2ccc(C#CCCCO)cc2)cc1` [Example 17, 5-[4-(5-Hydroxy-1-Pentyn-1-yl)Phenyl]-1-[4-(Methylsulfonyl)Phenyl]-3-Trifluoromethyl-1H-Pyrazole], the melting point is 87 to 90 °C.
